Laboratory results published in patent publication EP1997826A2, “Synthetic ligands for immunoglobulins and pharmaceutical compositions containing them” (Tecnogen S.p.A., priority 2007, dated 2008).

Test system: RBL 2H3 cells
Experiment: assay for degranulation of the RBL 2H3 cells (release of β-hexose-aminidase induced by anti-DNP IgE and DNP-BSA antigen)
Type: cell-based, rat
Source text: The RBL 2H3 cell line, rat basophils that express the receptor with high affinity for the immunoglobulins of class E (FcεRl), is widely used for investigating allergic reactions, because in this cell line the chemical mediators of inflammation are released as a result of allergen specific-IgE-FcεRI binding.
Release of the enzyme β-hexose-aminidase, which is present together with histamine in the granules of mast cells and basophils, can be used as an index of cellular degranulation (Tanaka et al., 1991, Chem. Pharm. Bull, 39, 2072-2076; McCloskey et al., 1988, Proc. Natl. Acad. Sci., USA, 85, 7260-7264).
The activity of the enzyme β-hexose-aminidase, released by the stimulated RBL 2H3 cells, was determined by the method described by Yamanishi et al., 1995, Jour. Biotech. Biochem., 59 (7), 1272-1275, which envisages measurement of the enzymatic activity by measuring the absorbance of the product p-nitrophenol generated by the synthetic substrate p-nitrophenyl-N-acetyl-β-D-glucosamide. 1x10^5 RBL 2H3 cells, trypsinized from plates at confluence, were resuspended in a volume of 80 µl of the culture medium (MEM + 10% inactivated fetal bovine serum) and distributed in each well of the 96-well plates (Costar). After 24 hours, 20 µl of medium containing anti-2,4-dinitrophenol monoclonal IgEs (DNP, Sigma, Cat. No. D-8406) was added to each well.
The microplates were incubated at 37°C for one hour and then washed three times with 100 µl of HBS buffer solution (10 mM HEPES, 135 mM NaCl, 5 mM KCI, 1 mM CaCl2, 0.5 mM MgCl2, 5.6 mM glucose, 0.1 % BSA, pH 7.4). After the washings, 100 µl of HBS containing the 2,4-dinitrophenol antigen conjugated to BSA (Sigma, Cat. No. A-6661) was added. As a control, 100 µl of HBS containing 1% Triton X-100 was added to some wells to determine the total amount of enzyme contained in the cellular granules.
After further incubation at 37°C for two hours, 30 µl of cellular supernatant or of cellular lysate was transferred to a new microplate, to which 50 µl of sodium citrate buffer at pH 4.5, containing 4 mM p-nitrophenyl-N-acetyl-β-D-glucosaminide (Sigma, Cat. No. N9376), a specific substrate for the enzyme β-hexose-aminidase, had been added beforehand. After incubation for two hours at 37°C, the reaction was stopped by adding 100 µl of glycine solution 0.2 M, pH 10.7. The enzymatic activity was determined by measuring the absorbance at 405 nm with a Microplate Reader Model 3550 EIA (Bio-Rad).
In preliminary experiments the immunoglobulins E and the antigen were added at various concentrations in order to determine the optimum concentrations for induction of the reaction of enzymatic release. The conditions identified experimentally correspond to 0.5 µg/ml of IgE and 0.05 µg/ml of antigen DNP conjugated to BSA.
To verify the capacity of the peptides of formula IB and of comparative peptides for inhibiting the degranulation of the RBL 2H3 cells, the peptides were added in the assay together with the antigen at concentrations between 0.1 and 500 µg/ml.

(H-L-Cys(p-MeOBzl)-L-Arg-L-Thr-L-Tyr)2-Lys-Gly-Lys-OH [ID]
inhibition of degranulation, result in words compared with peptide IB: Results similar to the results obtained with peptide IB
